From patent US6790864B2, “Compositions and methods to prevent toxicity induced by nonsteroidal antiinflammatory drugs” (NitroMed, Inc., priority 1995, dated 2004) come the findings set out here.

The test system of data set [1] is gastric lesion. In words: rat gastric lesion test, acute (single dose). In kind it is in vivo, rats. The protocol: (§1) The rat gastric lesion test (Kitagawa et al., J. Pharmacol. Exp.Ther., 253:1133-1137, 1990; Al-Ghamdi et al., J. Int. Med. Res., 19: 2242, 1991) was used to evaluate the potential of compounds to produce gastric lesion. Male Sprague Dawley rats (Charles River Laboratories, Wilmington, Mass.) weighing 230-250 g were used for the experiments. The rats were housed with laboratory chow and water ad libitum prior to the study. The rats were fasted for 24-30 hours with free access to water and then dosed by oral gavage with vehicle or with drugs given at a volume of 0.5 mL/100 g. For the unmodified NSAIDs being given in combination with a nitric oxide adduct (NO-adduct), the NO-adduct was administered by oral gavage immediately prior to the administration of NSAID by oral gavage. Food was withheld for 18 hours after the initial dosing. For acute studies, rats were euthanized by CO2 eighteen hours after dosing and the stomachs were dissected. For the multiple dosing studies, the results of which are in Table 3, food was given eighteen hours after the first dose and the rats were maintained on food and water ad libitum while receiving a single daily dose for the remainder of the experiment. […] The stomachs were dissected along the greater curvature, washed with a directed stream of 0.9% saline and pinned open on a sylgard based petridish for examination of the hemorrhagic lesion. Gastric lesion score was expressed in mm and calculated by summing the length of each lesion.

Data set [2] concerns carrageenin paw edema. Kind of data set: rat paw edema test (antiinflammatory activity). In kind it is in vivo, rats. To be noted: ratio of activity relative to the parent NSAID; oral gavage one hour prior to carrageenin, paw volume after three hours. The method, then: The rat paw edema test was used to measure antiinflammatory activity. The rat paw edema test was performed according to the method of Winter et al., Proc. Soc. […] Male Sprague-Dawley rats (250-275 g) were fasted overnight and dosed by oral gavage with vehicle or suspensions of compound one hour prior to the subplantar injection of 50 μl of 1% suspension of carrageenin. Three hours later, the paw volume was measured and compared with the initial volume measured immediately after carrageenin injection.

The test system of data set [3] is gastric lesion. In words: rat gastric lesion test, multiple dosing studies. In kind it is in vivo, rats. The method, then: as §1, with “Food was withheld for 18 hours after the initial dosing.” left out, “For the multiple dosing studies, the results of which are in Table 3, food was given eighteen hours after the first dose and the rats were maintained on food and water ad libitum while receiving a single daily dose for the remainder of the experiment.” left out

For data set [4], the system named is phenylbenzoquinone-induced writhing. In words: phenylbenzoquinone-induced writhing test in mice (analgesic activity). To be noted: ratio of activity relative to the parent NSAID; oral gavage 1 hour prior to phenylbenzoquinone i.p. It is filed as in vivo. The protocol:
The phenylbenzoquinone-induced writhing test in mice was used to measure analgesic activity. The ability of the compounds to inhibit phenylbenzoquinone-induced writhing in mice was measured using the method of Siegmund et al., Proc. Soc. […] Male CD-1 mice (Charles River Laboratories, Wilmington, Mass.) weighing 20-25 g were fasted overnight. Vehicle or compounds were administered by oral gavage 1 hour prior to i.p. injection of 2 mg/kg of phenylbenzoquinone. In the case of a nitric oxide adduct being given in combination with a NSAID, the nitric oxide adduct was administered immediately before the NSAID. Five minutes after the i.p. injection of phenylbenzoquinone, the number of writhes in a 5 minute period was counted.
On the technique in general: An intraperitoneal irritant provokes the stretching counted in writhing tests.

Where [5] appears, read: ratio of activity relative to the parent NSAID, oral gavage, fasted rats.
Setting [6] is: 7 days, fasted 24-30 hours before and 18 hours after first dosing, Ibuprofen 30, Example 11 50, Example 12 45 mg/kg.
Where [7] appears, read: male, Sprague Dawley, rat, in vivo, po, 18 h.

“4-O-Nitroso-1-(α-methyl-4-(2-methylpropyl)benzeneacetic Acid) Butyl Ester [Example 12]”: the “Relative Activity Gastric Lesion” value in data set [1] (setting [5]) is under 0.03. Besides, the “Relative Activity Antiinflammation” value in data set [2] came out at 1. In addition, the “Relative Gastric Lesion Activity” value in data set [3] (setting [6]) is “+ (1-20% of the gastric toxcity induced by the parent NSAID = +)”.
On to “4-O-Nitroso-4-methyl-1-(3-benzoyl-α-methylbenzeneacetic Acid) Pentyl Ester [Example 5]”, for which the “Relative Activity Analgesia” value in data set [4] was 1.1.
With `CC(C(=O)OCCCCON=O)c1cccc(C(=O)c2ccccc2)c1` (stereo not drawn) [Example 4, 4-O-Nitroso-1-(3-benzoyl-α-methylbenzeneacetic Acid) Butyl Ester], the “Relative Activity Analgesia” value in data set [4] is recorded as 1.6. For the same compound, the “Relative Activity Gastric Lesion” value in data set [1] (rat, in vivo, po) stood at 0.03. Also, the “Relative Activity Antiinflammation” value in data set [2] was determined as 0.58.
For `CC(C(=O)OCCC(C)(C)SN=O)c1cccc(C(=O)c2ccccc2)c1` (stereo not drawn) [Example 6, 3-S-Nitroso-3-methyl-1-(3-benzoyl-α-methylbenzeneacetic Acid) Butyl Ester], in data set [4], the “Relative Activity Analgesia” value is given as 1. Also, the “Relative Gastric Lesion Activity” value in data set [3] (4 days, fasted 24-30 hours before and 4 hours after first dosing, Ketoprofen 10, Example 4 14, Example 6 15 mg/kg) is given as “++ (21-40% of the gastric toxcity induced by the parent NSAID = ++)”.
For the compound `COc1ccc2c(c1)c(CC(=O)OCCCCON=O)c(C)n2C(=O)c1ccc(Cl)cc1` [Example 8], the “Relative Activity Analgesia” value in data set [4] amounted to 1. Also, the “Relative Activity Gastric Lesion” value in data set [1] (rat, in vivo, po) is given as 0.08. Besides, in data set [2], the “Relative Activity Antiinflammation” value is listed as 1.
Take `CC(C)Cc1ccc(C(C)C(=O)OCCC(C)(C)SN=O)cc1` (stereo not drawn) [Example 11, 3-S-Nitroso-3-methyl-1-(α-methyl-4-(2-methylpropyl)benzeneacetic Acid) Butyl Ester]: in data set [1] (setting [5]), the “Relative Activity Gastric Lesion” value is given as under 0.05. The “Relative Activity Antiinflammation” value in data set [2] was 1. Besides, the “Relative Gastric Lesion Activity” value in data set [3] (setting [6]) is recorded as “+ (1-20% of the gastric toxcity induced by the parent NSAID = +)”.
As for `CC(C(=O)OCCCCON=O)c1ccc(-c2ccccc2)c(F)c1` (stereo not drawn) [Example 13, 4-O-Nitroso-1-(2-Fluoro-α-methyl-biphenylacetic Acid) Butyl Ester], in data set [4], the “Relative Activity Analgesia” value came out at 0.31. Further, the “Relative Activity Gastric Lesion” value in data set [1] (rat, in vivo, po) is 0.5. In addition, the “Relative Activity Antiinflammation” value in data set [2] is on record as 1.83.
On to `CC(C(=O)OCc1ccc(CON=O)cc1)c1cccc(C(=O)c2ccccc2)c1` (stereo not drawn) [Example 16, 4O-Nitroso-hydroxymethylene-(1-(3-benzoyl-α-methylbenzeneacetic Acid)) Benzyl Ester], for which the “Relative Activity Analgesia” value in data set [4] was 1.1.
On to `CC(C(=O)O)c1ccc(-c2ccccc2)c(F)c1` (stereo not drawn) [Flurbiprofen, reference compound], for which the “Relative Activity Analgesia” value in data set [4] worked out at 1. In data set [1] (setting [7]), the “Relative Activity Gastric Lesion” value is 1. Also, in data set [2], the “Relative Activity Antiinflammation” value came to 1.
Take `COc1ccc2c(c1)c(CC(=O)O)c(C)n2C(=O)c1ccc(Cl)cc1` [Indomethacin, reference compound]: the “Relative Activity Analgesia” value in data set [4] was determined as 1. In data set [1] (setting [7]), the “Relative Activity Gastric Lesion” value was 1. In data set [2], the “Relative Activity Antiinflammation” value came out at 1.
As to `CN1C(C(=O)Nc2ccccn2)=C(O)c2ccccc2S1(=O)=O` [Piroxicam, reference compound], the “Relative Activity Analgesia” value in data set [4] was 1. The “Relative Activity Gastric Lesion” value in data set [1] (setting [7]) is given as 1.
